# In patent US20170281587A1, “ERYTHROCYTE FUNCTION IMPROVING AGENT” (Glico Nutrition Co., Ltd., priority 2014, published 2017):
# “And” between values parts separate entries of the source, which are not always exact repeats. Identical values can stand only once.
# What was measured:
# red blood cells [1] = details: cited from earlier work
# red blood cells [2] = details: in vivo, po
# Protocol: In this test, paprika carotenoids rich in carotenoids having 3,6-epoxy end groups or 5-membered ring end groups were orally administered to an adult, and cucurbitaxanthin A, capsanthin, capsorubin, and capsanthin 3,6-epoxide were evaluated for their ability to migrate into red blood cells. A specific testing method was as described below.
# Initially, 15 g of a paprika pigment emulsified preparation (PapriX; total amount of carotenoids: 10 mg/g) from Glico Nutrition Co., Ltd., 30 g of dextrin, 70 g of sugar, and 3 g of citric acid were dissolved in 1 L of water to prepare a test beverage containing the paprika carotenoids. The paprika pigment emulsified preparation contained 0.053 mass % of cucurbitaxanthin A, 0.40 mass % of capsanthin, 0.021 mass % of capsorubin, and 0.034 mass % of capsanthin 3,6-epoxide, and the test beverage contained 0.00079 mass % of cucurbitaxanthin A, 0.0060 mass % of capsanthin, 0.00031 mass % of capsorubin, and 0.00051 mass % of capsanthin 3,6-epoxide.
# Before the beginning of the ingestion and after 4 weeks from the ingestion, blood was collected to obtain blood samples. Red blood cells were separated from the obtained blood samples, and the carotenoids (capsanthin 3,6-epoxide, cucurbitaxanthin A, capsanthin, and capsorubin) present in red blood cells were quantified by HPLC.
# [3] = 30 healthy males and females, oral administration for 12 weeks
SMILES,ability to migrate into red blood cells (migration ratio into red blood cells) (red blood cells [2]),astaxanthin in the red blood cells (red blood cells [1]; [3]),lipid peroxides in the red blood cells (red blood cells [1]; [3]),"migration ratio into red blood cells (red blood cells [1]; day 84 after the ingestion, calculated from literature disclosure)"
CC1=C(/C=C/C(C)=C/C=C/C(C)=C/C=C/C=C(C)/C=C/C=C(C)/C=C/C2=C(C)C(=O)[C@@H](O)CC2(C)C)C(C)(C)C[C@H](O)C1=O [astaxanthin],–,an increase in astaxanthin,a decrease in lipid peroxides,0.0089% and 0.0057%
"CC(/C=C/C=C(C)/C=C/C(=O)[C@]1(C)C[C@@H](O)CC1(C)C)=C\C=C\C=C(C)\C=C\C=C(C)\C=C\[C@@]12O[C@@H](CC1(C)C)C[C@@]2(C)O [capsanthin 3,6-epoxide]",little migration into red blood cells,–,–,–
"CC1=C(/C=C/C(C)=C/C=C/C(C)=C/C=C/C=C(C)/C=C/C=C(C)/C=C/[C@@]23O[C@@H](CC2(C)C)C[C@@]3(C)O)C(C)(C)C[C@H](O)C1 [cucurbitaxanthin A, (3S,3′R,5R,6R)-3,6-epoxy-5,6-dihydro-β,β-carotene-3′,5-diol]",markedly high ability to migrate into red blood cells,–,–,–

# Continued, in another order:
ability to migrate into red blood cells (migration ratio into red blood cells) (red blood cells [2]),SMILES,astaxanthin in the red blood cells (red blood cells [1]; [3]),lipid peroxides in the red blood cells (red blood cells [1]; [3]),"migration ratio into red blood cells (red blood cells [1]; day 84 after the ingestion, calculated from literature disclosure)"
little migration into red blood cells,CC1=C(/C=C/C(C)=C/C=C/C(C)=C/C=C/C=C(C)/C=C/C=C(C)/C=C/C(=O)[C@]2(C)C[C@@H](O)CC2(C)C)C(C)(C)C[C@H](O)C1 [capsanthin],–,–,–
little migration into red blood cells,CC(/C=C/C=C(C)/C=C/C(=O)[C@]1(C)C[C@@H](O)CC1(C)C)=C\C=C\C=C(C)\C=C\C=C(C)\C=C\C(=O)[C@]1(C)C[C@@H](O)CC1(C)C [capsorubin],–,–,–
